Like-named read-outs stand apart in the source and are kept apart here.
Tests used:
[1] = test system: BD2 domain from BRD2, BRD3, or BRD4 / neddylated CRL2^KLHDC2; assay: Pulse-chase PROTAC-dependent ubiquitylation of BRD BD2 domains by neddylated CRL2^KLHDC2; details: prodrug tested
BRD2 = BRD2 (Homo sapiens, UniProt P25440); assay: Western blot of BRD2 levels after cellular dosing; details: for remaining activity at 2.19382 µM: Log SJ46420 (uM) 2.19382; for remaining activity at 2.79588 µM: Log SJ46420 (uM) 2.79588; for remaining activity at 3.09691 µM: Log SJ46420 (uM) 3.09691; for remaining activity at 3.39794 µM: Log SJ46420 (uM) 3.39794; for remaining activity at 3.69897 µM: Log SJ46420 (uM) 3.69897; for remaining activity at 4 µM: Log SJ46420 (uM) 4
Chain of BRD2 (P25440 whole entry): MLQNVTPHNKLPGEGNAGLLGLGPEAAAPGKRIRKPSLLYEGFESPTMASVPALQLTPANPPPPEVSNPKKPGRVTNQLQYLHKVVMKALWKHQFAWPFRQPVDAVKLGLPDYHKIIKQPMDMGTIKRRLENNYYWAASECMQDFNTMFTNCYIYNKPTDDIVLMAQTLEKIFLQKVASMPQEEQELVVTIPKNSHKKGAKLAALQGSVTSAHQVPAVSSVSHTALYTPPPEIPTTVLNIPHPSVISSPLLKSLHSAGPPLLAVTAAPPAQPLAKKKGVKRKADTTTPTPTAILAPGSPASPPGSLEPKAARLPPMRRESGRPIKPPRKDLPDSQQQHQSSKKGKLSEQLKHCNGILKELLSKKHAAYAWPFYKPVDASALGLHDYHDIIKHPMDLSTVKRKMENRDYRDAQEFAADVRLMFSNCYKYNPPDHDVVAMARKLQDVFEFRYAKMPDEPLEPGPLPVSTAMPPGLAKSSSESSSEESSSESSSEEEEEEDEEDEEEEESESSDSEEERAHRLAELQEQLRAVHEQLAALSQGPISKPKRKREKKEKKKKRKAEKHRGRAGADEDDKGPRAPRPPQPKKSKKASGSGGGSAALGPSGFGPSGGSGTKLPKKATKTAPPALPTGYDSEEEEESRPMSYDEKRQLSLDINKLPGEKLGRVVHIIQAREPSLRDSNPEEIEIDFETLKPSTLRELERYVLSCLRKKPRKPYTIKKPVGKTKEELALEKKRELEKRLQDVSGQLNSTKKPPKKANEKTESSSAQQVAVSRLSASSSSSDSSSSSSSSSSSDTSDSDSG

[2] = 22Rv1, read-out: BRD2 (DMSO = 100), 22Rv1 cells, Rep1, Rep2
[3] = PC-3, read-out: BRD2 (DMSO = 100), PC3 cells, Rep1, Rep2

COC(=O)CNC(=O)Cc1csc(-c2ccc3cccc(OCCN4CCN(C(=O)C[C@@H]5N=C(c6ccc(Cl)cc6)c6c(sc(C)c6C)-n6c(C)nnc65)CC4)c3c2)n1 [SJ46420]
ubiquitylation of BRD3BD2 in reconstituted biochemical assays [1]: unable to promote ubiquitylation
remaining activity at 0.16 µM (BRD2; 22Rv1, 24 h, read-out: BRD2 level relative to DMSO (100%), 22Rv1, 0.16µM, 24 h, Fig S6f): 99 ± 7.4%
remaining activity at 0.31 µM (BRD2; 22Rv1, 24 h, read-out: BRD2 level relative to DMSO (100%), 22Rv1, 0.31µM, 24 h, Fig S6f): 92 ± 16%
remaining activity at 0.63 µM (BRD2; 22Rv1, 24 h, read-out: BRD2 level relative to DMSO (100%), 22Rv1, 0.63µM, 24 h, Fig S6f): 93 ± 8.7%
remaining activity at 1.3 µM (BRD2; 22Rv1, 24 h, read-out: BRD2 level relative to DMSO (100%), 22Rv1, 1.3µM, 24 h, Fig S6f): 88 ± 1.3%
remaining activity at 2.5 µM (BRD2; 22Rv1, 24 h, read-out: BRD2 level relative to DMSO (100%), 22Rv1, 2.5µM, 24 h, Fig S6f): 83 ± 5.5%
remaining activity at 5 µM (BRD2; 22Rv1, 24 h, read-out: BRD2 level relative to DMSO (100%), 22Rv1, 5µM, 24 h, Fig S6f): 87 ± 7.4%
remaining activity at 10 µM (BRD2; 22Rv1, 24 h, read-out: BRD2 level relative to DMSO (100%), 22Rv1, 10µM, 24 h, Fig S6f): 92 ± 5.6%
remaining activity at 2.19382 µM (BRD2; [2]): 94.2%
remaining activity at 2.79588 µM (BRD2; [2]): 98.7%
remaining activity at 3.09691 µM (BRD2; [2]): 88.1%
remaining activity at 3.39794 µM (BRD2; [2]): 87.2%
remaining activity at 3.69897 µM (BRD2; [2]): 92.7%
remaining activity at 4 µM (BRD2; [2]): 96.3%
Dmax (BRD2; 22Rv1, read-out: BRD2 Dmax, 22Rv1, 24 h dose): 0%
remaining activity at 0.156 µM (BRD2; 22Rv1, read-out: BRD2 level, Western blot quantification (DMSO = 100), Fig S6f, 22RV1 KO/rescue Dose Response, 0.156 uM): 94.2%
remaining activity at 0.625 µM (BRD2; 22Rv1, read-out: BRD2 level, Western blot quantification (DMSO = 100), Fig S6f, 22RV1 KO/rescue Dose Response, 0.625 uM): 98.7%
remaining activity at 1.25 µM (BRD2; 22Rv1, read-out: BRD2 level, Western blot quantification (DMSO = 100), Fig S6f, 22RV1 KO/rescue Dose Response, 1.25 uM): 88.1%
remaining activity at 2.5 µM (BRD2; 22Rv1, read-out: BRD2 level, Western blot quantification (DMSO = 100), Fig S6f, 22RV1 KO/rescue Dose Response, 2.5 uM): 87.2%
remaining activity at 5 µM (BRD2; 22Rv1, read-out: BRD2 level, Western blot quantification (DMSO = 100), Fig S6f, 22RV1 KO/rescue Dose Response, 5 uM): 92.7%
remaining activity at 10 µM (BRD2; 22Rv1, read-out: BRD2 level, Western blot quantification (DMSO = 100), Fig S6f, 22RV1 KO/rescue Dose Response, 10uM): 96.3%
remaining activity at 0.16 µM (BRD2; 24 h, read-out: BRD2 level relative to DMSO (100%), PC3, 0.16µM, 24 h, Fig S6e): 90 ± 11%
remaining activity at 0.31 µM (BRD2; 24 h, read-out: BRD2 level relative to DMSO (100%), PC3, 0.31µM, 24 h, Fig S6e): 98 ± 2.9%
remaining activity at 0.63 µM (BRD2; 24 h, read-out: BRD2 level relative to DMSO (100%), PC3, 0.63µM, 24 h, Fig S6e): 83 ± 3.4%
remaining activity at 1.3 µM (BRD2; 24 h, read-out: BRD2 level relative to DMSO (100%), PC3, 1.3µM, 24 h, Fig S6e): 89 ± 5.6%
remaining activity at 2.5 µM (BRD2; 24 h, read-out: BRD2 level relative to DMSO (100%), PC3, 2.5µM, 24 h, Fig S6e): 92 ± 9.1%
remaining activity at 5 µM (BRD2; 24 h, read-out: BRD2 level relative to DMSO (100%), PC3, 5µM, 24 h, Fig S6e): 91 ± 7.6%
remaining activity at 10 µM (BRD2; 24 h, read-out: BRD2 level relative to DMSO (100%), PC3, 10µM, 24 h, Fig S6e): 88 ± 9.1%
remaining activity at 0.2 µM (BRD2; AU565, 8 h, read-out: BRD2 level relative to DMSO (100%), AU565, 0.2µM, 8 h, Fig S6c): 93 ± 3.1%
remaining activity at 1 µM (BRD2; AU565, 8 h, read-out: BRD2 level relative to DMSO (100%), AU565, 1µM, 8 h, Fig S6c): 96 ± 6.2%
remaining activity at 5 µM (BRD2; AU565, 8 h, read-out: BRD2 level relative to DMSO (100%), AU565, 5µM, 8 h, Fig S6c): 90 ± 5.1%
remaining activity at 0.2 µM (BRD2; AU565, read-out: BRD2 level, Western blot quantification (DMSO = 100), Fig S6c, AU565 Cells, 0.2 uM): 91.6%
remaining activity at 1 µM (BRD2; AU565, read-out: BRD2 level, Western blot quantification (DMSO = 100), Fig S6c, AU565 Cells, 1 uM): 101%
remaining activity at 5 µM (BRD2; AU565, read-out: BRD2 level, Western blot quantification (DMSO = 100), Fig S6c, AU565 Cells, 5 uM): 87%
remaining activity at 2.5 µM (BRD2; HEK-293T, 24 h, read-out: BRD2 level relative to DMSO (100%), 293T, 2.5µM, 24 h, Fig S6a): 89 ± 9.5%
remaining activity at 5 µM (BRD2; HEK-293T, 24 h, read-out: BRD2 level relative to DMSO (100%), 293T, 5µM, 24 h, Fig S6a): 92 ± 2.5%
remaining activity at 2.5 µM (BRD2; HEK-293T, read-out: BRD2 level, Western blot quantification (DMSO = 100), Fig S6a, 293T cells, 2.5 uM): 82%
remaining activity at 5 µM (BRD2; HEK-293T, read-out: BRD2 level, Western blot quantification (DMSO = 100), Fig S6a, 293T cells, 5 uM): 91.4%
remaining activity at 2.5 µM (BRD2; MDA-MB-468, 24 h, read-out: BRD2 level relative to DMSO (100%), MDA-MB-468, 2.5µM, 24 h, Fig S6b): 79 ± 8.9%
remaining activity at 5 µM (BRD2; MDA-MB-468, 24 h, read-out: BRD2 level relative to DMSO (100%), MDA-MB-468, 5µM, 24 h, Fig S6b): 89 ± 3.9%
remaining activity at 10 µM (BRD2; MDA-MB-468, 24 h, read-out: BRD2 level relative to DMSO (100%), MDA-MB-468, 10µM, 24 h, Fig S6b): 91 ± 3.1%
remaining activity at 2 µM (BRD2; MDA-MB-468, read-out: BRD2 level, Western blot quantification (DMSO = 100), Fig S6b, MDA-MB468 Cells, 2 uM): 73.4%
remaining activity at 5 µM (BRD2; MDA-MB-468, read-out: BRD2 level, Western blot quantification (DMSO = 100), Fig S6b, MDA-MB468 Cells, 5 uM): 86.5%
remaining activity at 10 µM (BRD2; MDA-MB-468, read-out: BRD2 level, Western blot quantification (DMSO = 100), Fig S6b, MDA-MB468 Cells, 10 uM): 89.6%
remaining activity at 1.89279 µM (BRD2; PC-3, read-out: BRD2 (DMSO = 100), PC3 cells, Log SJ46420 (uM) 1.89279, Rep1, Rep2): 89%
remaining activity at 2.19382 µM (BRD2; [3]): 83.3%
remaining activity at 2.49485 µM (BRD2; PC-3, read-out: BRD2 (DMSO = 100), PC3 cells, Log SJ46420 (uM) 2.49485, Rep1, Rep2): 100%
remaining activity at 2.79588 µM (BRD2; [3]): 81.2%
remaining activity at 3.09691 µM (BRD2; [3]): 85.7%
remaining activity at 3.39794 µM (BRD2; [3]): 86.6%
remaining activity at 3.69897 µM (BRD2; [3]): 86.5%
remaining activity at 4 µM (BRD2; [3]): 81.6%
remaining activity at 1 µM (BRD2; SK-BR-3, 2 h, read-out: BRD2 level relative to DMSO (100%), SKBR3, 1µM, 2hr, Fig S6g): 71 ± 3.9%
remaining activity at 5 µM (BRD2; SK-BR-3, 2 h, read-out: BRD2 level relative to DMSO (100%), SKBR3, 5µM, 2hr, Fig S6g): 69 ± 10%
remaining activity at 1 µM (BRD2; SK-BR-3, 2 h, read-out: BRD2 level, Western blot quantification (DMSO = 100), Fig S6g, SKBR3 Time course, 1 uM, 2hr): 67.4%
remaining activity at 5 µM (BRD2; SK-BR-3, 2 h, read-out: BRD2 level, Western blot quantification (DMSO = 100), Fig S6g, SKBR3 Time course, 5 uM, 2hr): 61.5%

From paper PMC11470957, “Principles of paralog-specific targeted protein degradation engaging the C-degron E3 KLHDC2” (Nature Communications, 2024)
